This note sets out measurements from patent US11110158B2, “Prostate-associated antigens and vaccine-based immunotherapy regimens” (Pfizer Inc., priority 2012, dated 2021).

In experiment [1] the test system is hPSMA full-length protein. Nature of the experiment: IFN-γ ELISPOT, hPSMA modified versus full-length DNA vaccine in Pasteur (HLA-A2/DR1) transgenic mice. The format is in vivo, human. The text has this:
The immune responses induced by DNA vaccination using a construct encoding an immunogenic PSMA polypeptide (the “human PSMA modified antigen” or “hPSMA modified”) consisting 15-750 amino acids (aa) of the native human PSMA protein of SEQ ID NO: 1 were compared with those induced by the native human full-length PSMA protein (hPSMA full length). Groups of female C57BL/6 mice or female Pasteur (HLA-A2/DR1) transgenic mice were primed on day 0 and boosted on days 14, 28 by PMED administration with a 2 μg dose of a DNA vaccine encoding either hPSMA full-length or hPSMA modified protein. Mice were bled and sacrificed on day 35 (7 days after the third vaccination) and T cell immune responses against the hPSMA full-length protein were determined in splenocytes by IFN-γ ELISPOT assay. For C57BL/6 mice, single cell suspensions of 5×10^5 splenocytes from individual animals were plated per well with […] purified hPSMA protein, 5×10^4 TRAMP-C2 cells alone, or TRAMP-C2 cells expressing hPSMA or a PSMA-PSA-PSCA fusion protein. […] Responses in Pasteur mice were also determined using 10 μg/ml purified PSMA protein or 5×10^4 SK-Mel5 cells that had been transduced with Adenoviral vectors expressing a control protein (Ad-eGFP) or the full-length human PSMA protein (Ad-hPSMA). […] The number of IFN-γ SFC was counted by a CTL reader. […]

A further experiment has as its system human PSMA. As to the kind of experiment: IFNγ ELISPOT, breaking of immune tolerance in human PSMA transgenic mice. The format is in vivo, mouse. How it is done: Eight-to-10 week-old transgenic mice were immunized using PMED method with various PSMA DNA constructs in a prime/boost/boost regimen, two weeks apart between each vaccination. Alternatively, mice were primed with adenovirus vectors encoding the PSMA antigen at 1×10^9 viral particles in 50 μl (PBS) by intramuscular injection. The adenovirus vector (pShuttle-CMV vector from Stratagene) was modified to contain NheI and BgIII restriction sites within the multiple cloning site. The DNA encoding human PSMA modified was then restriction digested with NheI and BgIII, ligated into this vector and sequence confirmed. The pShuttle human PSMA modified vector was then recombined with the pAdEasy-1 vector and virus was propagated according to the AdEasy system (Stratagene). Twenty-days later, they were boosted with PMED as described above. In each of the regimens used, antigen specific T cell response was measured 7 days after the last immunization in an interferon-gamma (IFNγ) ELISPOT assay. The ELISPOT assay is similar to the sandwich enzyme-linked immunosorbent assay (ELISA). Briefly, a capture antibody specific to IFNγ BD Bioscience, #51-2525kc) is coated onto a polyvinylidene fluoride (PVDF) membrane in a microplate overnight at 4° C. The plate is blocked with serum/protein to prevent nonspecific binding to the antibody. […]

Take “PSMA modified: membrane-bound polypeptide of amino acids 15-750 of human PSMA, SEQ ID NO: 9; tested as DNA construct”: the “IFN-γ T cell immune responses to the HLA-A2-restricted CD8+ T cell epitopes” value in experiment [1] (Example 7, FIG. 27A, day 35, difference between groups not significant) is recorded as “highest magnitude of IFN-γ T cell immune responses”. Moreover, the “IFN-γ SFC to the purified hPSMA protein” value in experiment [1] (Example 7, FIG. 27B, day 35, versus hPSMA full-length vaccine) was “higher frequencies of IFN-γ SFC”. Besides, the “# of positive” value in the experiment with human PSMA (Table 12, human PSMA transgenic mice with SFC>50 / mice tested) is given as 2/10. The “PSMA transgenic mice able to mount a T cell response to human PSMA” value in the experiment on human PSMA (human PSMA transgenic mice, SFC>50 positive) worked out at 20%.
